Values quoted from earlier work in US8952004B2, “CXCR3 receptor antagonists” (Boehringer Ingelheim International GmbH, priority 2010, dated 2015).

System: atherosclerotic lesion formation
Details: LDL receptor knockout model, dosed prophylactically

For `CCOc1ccc(-n2c(C(C)N(Cc3cccnc3)C(=O)Cc3ccc(F)c(C(F)(F)F)c3)nc3ncccc3c2=O)cc1` (stereo not shown) [NBI-74330], the atherosclerotic lesion formation is given as “significantly attenuated atherosclerotic lesion formation”.
